Laboratory results: patent US10919885B2, “Compounds and uses thereof” (Yumanity Therapeutics, Inc., priority 2018, dated 2021)

Molecular target: human SCD1 (Homo sapiens (Human), UniProt O00767)
Assay: Yeast growth assay, strain expressing human SCD1 as the sole desaturase (reduced growth as surrogate for SCD inhibition)
Type: cell-based
Conditions: yeast with OLE1 deleted expressing human SCD1 from a plasmid; growth read as OD600 after 40 h at 30° C.; top drug concentration 33.3 μM
Summary of the method: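 Yeast lacking OLE1 depend on plasmid-borne human SCD1 or SCD5 and are tested in SD-Ura medium without oleic/palmitoleic acid or Tween.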

Sequence of human SCD1 (O00767 whole entry): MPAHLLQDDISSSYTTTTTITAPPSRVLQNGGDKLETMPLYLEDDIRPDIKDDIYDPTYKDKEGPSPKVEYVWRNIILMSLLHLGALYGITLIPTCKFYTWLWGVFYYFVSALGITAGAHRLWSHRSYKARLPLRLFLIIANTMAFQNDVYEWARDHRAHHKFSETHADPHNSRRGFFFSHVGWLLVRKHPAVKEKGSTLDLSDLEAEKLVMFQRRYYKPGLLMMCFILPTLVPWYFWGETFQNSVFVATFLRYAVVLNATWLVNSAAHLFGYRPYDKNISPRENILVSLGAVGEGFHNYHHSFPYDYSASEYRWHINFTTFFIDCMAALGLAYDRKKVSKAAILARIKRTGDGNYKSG

Structure (SMILES) | IC50 [µM]
CSCC(c1ccccc1)n1cc(NC(=O)c2cc(-c3ccccc3)on2)cn1 (stereo not drawn) [Compound 73] | > 45
O=C(Nc1cnn(Cc2cc(F)ccc2C(F)(F)F)c1)c1cc(-c2ccccc2)on1 [Compound 74] | > 45
CS(=O)(=O)CCC(c1ccccc1)n1cc(NC(=O)c2cc(-c3ccccc3)on2)cn1 (stereo not drawn) [Compound 75] | > 45
CN(C(=O)c1cc(-c2ccccc2)on1)c1cnn(Cc2cc(F)ccc2C(F)(F)F)c1 [Compound 76] | > 45
O=C(Nc1cnn(Cc2cc(F)ccc2C(F)(F)F)c1)c1cc(-c2ccccn2)on1 [Compound 77] | > 45
C[S+]([O-])CC(c1ccccc1)n1cc(NC(=O)c2cc(-c3ccccc3)on2)cn1 (stereo not drawn) [Compound 78] | > 45
O=C(Nc1noc(Cc2ccccc2)n1)c1cc(-c2ccccc2)on1 [Compound 79] | > 45
CS(=O)(=O)CC(c1ccccc1)n1cc(NC(=O)c2cc(-c3ccccc3)on2)cn1 (stereo not drawn) [Compound 80] | > 45
O=C(Nc1cnn(Cc2cccc(F)c2)c1)c1cc(-c2ccns2)on1 [Compound 81, N-(1-(3-fluorobenzyl)-1H-pyrazol-4-yl)-5-(isothiazol-5-yl)isoxazole-3-carboxamide] | 0.232
O=C(Nc1cn(Cc2ccccc2)nc1C(F)(F)F)c1cc(-c2ccccc2)on1 [Compound 82] | > 45
C=C(C)c1cc(C(=O)Nc2cnn(Cc3cc(F)ccc3C(F)(F)F)c2)no1 [Compound 84] | > 45
CNC(=O)c1cc(C(=O)Nc2cnn(Cc3cccc(F)c3)c2)no1 [Compound 87] | 15
N#Cc1ccc(F)cc1Cn1cc(NC(=O)c2cc(-c3ccccc3)on2)cn1 [Compound 88] | > 45
Cn1cccc(-c2cc(C(=O)Nc3cnn(Cc4cccc(F)c4)c3)no2)c1=O [Compound 89] | 12
O=C(Nc1cnn(Cc2ccccc2Cl)c1)c1cc(-c2cccc3cn(C4COC4)nc23)on1 [Compound 92] | > 45
O=C(Nc1cnn(Cc2ccccc2Cl)c1)c1cc(-c2cccc3cnn(C4COC4)c23)on1 [Compound 93] | > 45
O=C(Nc1cnn(Cc2ccccc2Cl)c1)c1cc(-c2cccc3c2cnn3C2COC2)on1 [Compound 94] | > 45
O=C(Nc1cnn(Cc2ccccc2)c1)c1cc(-c2cccc3cn(C4COC4)nc23)on1 [Compound 95] | > 45
O=C(Nc1cnn(Cc2ccccc2)c1)c1cc(-c2cccc3cnn(C4COC4)c23)on1 [Compound 96] | > 45
O=C(Nc1cnn(Cc2ccccc2)c1)c1cc(-c2cccc3c2cnn3C2COC2)on1 [Compound 97] | > 45
N#Cc1cc(F)cc(Cn2cc(NC(=O)c3cc(-c4ccccc4)on3)cn2)c1 [Compound 98] | > 45
N#Cc1ccc(-c2cc(C(=O)Nc3cnn(Cc4cc(F)ccc4C(F)(F)F)c3)no2)nc1 [Compound 99] | > 45
O=C(Nc1cnn(Cc2cccc(F)c2)c1)c1cc(C2(O)CCC2)on1 [Compound 100] | 3.1
N#Cc1ccccc1-c1cc(C(=O)Nc2cnn(Cc3cccc(F)c3)c2)no1 [Compound 103] | > 45
CCc1cc(C(=O)Nc2cnn(Cc3cccc(F)c3)c2)no1 [Compound 104, 5-ethyl-N-(1-(3-fluorobenzyl)-1H-pyrazol-4-yl)isoxazole-3-carboxamide] | 0.066
C=Cc1cc(C(=O)Nc2cnn(Cc3cccc(F)c3)c2)no1 [Compound 106, N-(1-(3-fluorobenzyl)-1H-pyrazol-4-yl)-5-vinylisoxazole-3-carboxamide] | 0.048
O=C(Nc1cnn(Cc2cc(F)ccc2C(F)(F)F)c1)c1cc(-c2ncccc2F)on1 [Compound 107] | > 45

Molecular target: human SCD5 (Homo sapiens (Human), UniProt Q86SK9)
Assay: Yeast growth assay, strain expressing human SCD5 as the sole desaturase (reduced growth as surrogate for SCD inhibition)
Type: cell-based
Conditions: yeast with OLE1 deleted expressing human SCD5 from a plasmid; growth read as OD600 after 40 h at 30° C.; top drug concentration 33.3 μM
Description: Strains expressing SCD1 or SCD5 as the sole desaturase, the human SCD1 and SCD5 genes were used to evaluate inhibition of SCD1/SCD5 using reduced growth as a surrogate for SCD inhibition. These yeast strains express human SCD1 or SCD5 from a plasmid harbored in a strain in which the yeast OLE1 gene is deleted.
All compound profiling experiments were performed using the same basic protocol. Yeast were cultured using standard techniques in complete synthetic media lacking uracil and containing yeast nitrogen base supplemented with 2% (w/v) glucose (SD-Ura) Starter cultures were inoculated in 3 mL SD-Ura media containing 0.01% tween and 0.2 mM palmitoleic and oleic acid. Cultures were incubated overnight in a 30° C. shaker incubator (225 rpm). Saturated morning cultures were centrifuged, washed in SD-Ura media lacking TWEEN-20 and fatty acids, and then diluted 1:20 in fresh SD-Ura media also lacking TWEEN-20 and fatty acids.
Compound administration was performed in two separate steps. First, 15 μL of SD-Ura was dispensed into clear 384-well assay plates using a MULTIDROP™ Combi reagent dispenser. […] The cultures described above were centrifuged and washed with media lacking TWEEN-20 or oleic and palmitoleic acids.
After yeast delivery, assay plates were incubated under humidified conditions at 30° C. for 40 h. Yeast growth was monitored by reading the OD600 of each well using a microplate reader (Perkin Elmer EnVision™).

Sequence of human SCD5 (Q86SK9 whole entry): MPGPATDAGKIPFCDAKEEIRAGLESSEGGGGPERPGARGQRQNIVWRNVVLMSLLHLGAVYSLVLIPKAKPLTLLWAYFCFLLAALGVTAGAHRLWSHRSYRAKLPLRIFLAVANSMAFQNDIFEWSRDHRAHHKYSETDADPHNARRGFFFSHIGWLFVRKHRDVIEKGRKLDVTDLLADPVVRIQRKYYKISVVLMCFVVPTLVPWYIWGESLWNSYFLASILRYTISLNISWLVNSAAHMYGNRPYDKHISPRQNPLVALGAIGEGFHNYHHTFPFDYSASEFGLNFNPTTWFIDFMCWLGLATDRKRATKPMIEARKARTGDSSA

Structure (SMILES) | IC50 [µM]
CSCC(c1ccccc1)n1cc(NC(=O)c2cc(-c3ccccc3)on2)cn1 (stereo not drawn) [Compound 73] | > 45
O=C(Nc1cnn(Cc2cc(F)ccc2C(F)(F)F)c1)c1cc(-c2ccccc2)on1 [Compound 74] | > 45
CS(=O)(=O)CCC(c1ccccc1)n1cc(NC(=O)c2cc(-c3ccccc3)on2)cn1 (stereo not drawn) [Compound 75] | > 45
CN(C(=O)c1cc(-c2ccccc2)on1)c1cnn(Cc2cc(F)ccc2C(F)(F)F)c1 [Compound 76] | > 45
O=C(Nc1cnn(Cc2cc(F)ccc2C(F)(F)F)c1)c1cc(-c2ccccn2)on1 [Compound 77] | > 45
C[S+]([O-])CC(c1ccccc1)n1cc(NC(=O)c2cc(-c3ccccc3)on2)cn1 (stereo not drawn) [Compound 78] | > 45
O=C(Nc1noc(Cc2ccccc2)n1)c1cc(-c2ccccc2)on1 [Compound 79] | > 45
CS(=O)(=O)CC(c1ccccc1)n1cc(NC(=O)c2cc(-c3ccccc3)on2)cn1 (stereo not drawn) [Compound 80] | > 45
O=C(Nc1cnn(Cc2cccc(F)c2)c1)c1cc(-c2ccns2)on1 [Compound 81, N-(1-(3-fluorobenzyl)-1H-pyrazol-4-yl)-5-(isothiazol-5-yl)isoxazole-3-carboxamide] | 1.6
O=C(Nc1cn(Cc2ccccc2)nc1C(F)(F)F)c1cc(-c2ccccc2)on1 [Compound 82] | > 45
C=C(C)c1cc(C(=O)Nc2cnn(Cc3cc(F)ccc3C(F)(F)F)c2)no1 [Compound 84] | > 45
CNC(=O)c1cc(C(=O)Nc2cnn(Cc3cccc(F)c3)c2)no1 [Compound 87] | > 45
N#Cc1ccc(F)cc1Cn1cc(NC(=O)c2cc(-c3ccccc3)on2)cn1 [Compound 88] | > 45
Cn1cccc(-c2cc(C(=O)Nc3cnn(Cc4cccc(F)c4)c3)no2)c1=O [Compound 89] | > 45
O=C(Nc1cnn(Cc2ccccc2Cl)c1)c1cc(-c2cccc3cn(C4COC4)nc23)on1 [Compound 92] | > 45
O=C(Nc1cnn(Cc2ccccc2Cl)c1)c1cc(-c2cccc3cnn(C4COC4)c23)on1 [Compound 93] | > 45
O=C(Nc1cnn(Cc2ccccc2Cl)c1)c1cc(-c2cccc3c2cnn3C2COC2)on1 [Compound 94] | > 45
O=C(Nc1cnn(Cc2ccccc2)c1)c1cc(-c2cccc3cn(C4COC4)nc23)on1 [Compound 95] | > 45
O=C(Nc1cnn(Cc2ccccc2)c1)c1cc(-c2cccc3cnn(C4COC4)c23)on1 [Compound 96] | > 45
O=C(Nc1cnn(Cc2ccccc2)c1)c1cc(-c2cccc3c2cnn3C2COC2)on1 [Compound 97] | > 45
N#Cc1cc(F)cc(Cn2cc(NC(=O)c3cc(-c4ccccc4)on3)cn2)c1 [Compound 98] | > 45
N#Cc1ccc(-c2cc(C(=O)Nc3cnn(Cc4cc(F)ccc4C(F)(F)F)c3)no2)nc1 [Compound 99] | > 45
O=C(Nc1cnn(Cc2cccc(F)c2)c1)c1cc(C2(O)CCC2)on1 [Compound 100] | 20
N#Cc1ccccc1-c1cc(C(=O)Nc2cnn(Cc3cccc(F)c3)c2)no1 [Compound 103] | > 45
CCc1cc(C(=O)Nc2cnn(Cc3cccc(F)c3)c2)no1 [Compound 104, 5-ethyl-N-(1-(3-fluorobenzyl)-1H-pyrazol-4-yl)isoxazole-3-carboxamide] | 1
C=Cc1cc(C(=O)Nc2cnn(Cc3cccc(F)c3)c2)no1 [Compound 106, N-(1-(3-fluorobenzyl)-1H-pyrazol-4-yl)-5-vinylisoxazole-3-carboxamide] | 1.9
O=C(Nc1cnn(Cc2cc(F)ccc2C(F)(F)F)c1)c1cc(-c2ncccc2F)on1 [Compound 107] | > 45
